pIC50: −log10 of the molar value. Structures can show the parent of a compound that is named as a salt.
Target: IRAK-4 (Homo sapiens (Human), UniProt Q9NWZ3)
Test: In vitro IRAK-4 kinase assay
Type: biochemical
Settings: purified recombinant IRAK-4, 50 uM ATP, 33P peptide phosphorylation
Description: Purified recombinant IRAK-4 protein was incubated with 250 uM synthetic peptide ([…]) in 30 ul of kinase buffer including (20 mM MOPS pH7.2, 25 mM beta glycerol phosphate, 5 mM EGTA, 1 mM sodium orthovanadate, 1 mM DTT, 50 uM ATP, 20 mM MgCl2, 10 uCi γ-^33P, 0.1% BSA) for the indicated time. For purified recombinant IRAK-1 protein kinase assay, 50 uM ATP was used. A 25 ul aliquot of the reaction mixture was transferred on to p81 phosphocellulose squares (Upstate Biotechnology, Lake Placid, N.Y.). The assay squares were washed three times with 0.75% phosphoric acid and once with acetone. Enzyme activity was measured by determining the bound radioactivity by liquid scintillation counting.

Sequence of IRAK-4 (Q9NWZ3 whole entry, species assumed): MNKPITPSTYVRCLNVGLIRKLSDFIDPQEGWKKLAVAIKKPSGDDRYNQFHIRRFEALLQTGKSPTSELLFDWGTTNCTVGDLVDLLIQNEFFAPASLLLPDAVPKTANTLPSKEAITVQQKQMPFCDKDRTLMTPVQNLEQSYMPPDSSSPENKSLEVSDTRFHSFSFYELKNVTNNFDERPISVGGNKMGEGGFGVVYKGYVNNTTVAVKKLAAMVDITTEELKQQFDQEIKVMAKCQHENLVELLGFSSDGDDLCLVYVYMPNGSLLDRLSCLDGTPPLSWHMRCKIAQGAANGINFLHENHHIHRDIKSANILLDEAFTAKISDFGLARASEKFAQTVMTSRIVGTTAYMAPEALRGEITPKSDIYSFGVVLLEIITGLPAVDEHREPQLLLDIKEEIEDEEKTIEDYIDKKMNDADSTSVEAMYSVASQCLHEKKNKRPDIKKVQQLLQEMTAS

pIC50 | SMILES
5.83 | NC1CCC(Oc2ccc(Cl)cc2NC(=O)c2csc3cncnc23)CC1 (stereo not drawn) [Example 118, Thieno[3,2-d]pyrimidine-7-carboxylic acid [2-(4-amino-cyclohexyloxy)-5-chloro-phenyl]-amide]
6.08 | COc1cc(C(=O)NCCCO)ccc1NC(=O)c1csc2cncnc12 [Example 113, Thieno[3,2-d]pyrimidine-7-carboxylic acid [4-(3-hydroxy-propylcarbamoyl)-2-methoxy-phenyl]-amide]
5.61 | O=C(Nc1cc(Cl)ccc1OCCCO)c1csc2cncnc12 [Example 139, Thieno[3,2-d]pyrimidine-7-carboxylic acid [5-chloro-2-(3-hydroxy-propoxy)-phenyl]-amide]
6.28 | O=C(Nc1cc(Cl)ccc1N1CCOCC1)c1cnn2cccnc12 [Example 99, Pyrazolo[1,5-alpha]pyrimidine-3-carboxylic acid (5-chloro-2-morpholin-4-yl-phenyl)-amide]
6.32 | O=C(Nc1cc(Cl)ccc1-c1ccc(O)cc1)c1cnn2cccnc12 [Example 94, Pyrazolo[1,5-alpha]pyrimidine-3-carboxylic acid (4-chloro-4′-hydroxy-biphenyl-2-yl)-amide]
6.81 | Nc1cccc(NC(=O)c2cnn3cccnc23)c1N1CCCCC1 [Example 63, Pyrazolo[1,5-alpha]pyrimidine-3-carboxylic acid (3-amino-2-piperidin-1-yl-phenyl)-amide]
5.19 | COc1c(C)cc(C)cc1NC(=O)c1cnn2cccnc12 [Example 168, Pyrazolo[1,5-alpha]pyrimidine-3-carboxylic acid (2-methoxy-3,5-dimethyl-phenyl)-amide]
5.46 | COc1ccc(Cl)cc1NC(=O)c1csc2cccnc12 [Example 150, Thieno[3,2-beta]pyridine-3-carboxylic acid (5-chloro-2-methoxy-phenyl)-amide]
6.69 | NC(=O)c1cnc2c(C(=O)Nc3cc(Cl)ccc3O[C@H]3CC[C@@H](O)CC3)cnn2c1 [Example 67, Pyrazolo[1,5-alpha]pyrimidine-3,6-dicarboxylic acid 6-amide 3-{[5-chloro-2-(4-hydroxy-cyclohexyloxy)-phenyl]-amide}]
5.18 | COc1ccccc1NC(=O)c1csc2cncnc12 [Example 169, Thieno[3,2-d]pyrimidine-7-carboxylic acid (2-methoxy-phenyl)-amide]
5.98 | Cc1ncoc1COc1ccc(Cl)cc1NC(=O)c1csc2cncnc12 [Example 115, Thieno[3,2-d]pyrimidine-7-carboxylic acid [5-chloro-2-(4-methyl-oxazol-5-ylmethoxy)-phenyl]-amide]
5.33 | O=C(Nc1cc(Cl)ccc1OC[C@H](O)CO)c1cnn2cccnc12 [Example 163, Pyrazolo[1,5-alpha]pyrimidine-3-carboxylic acid [5-chloro-2-(2,3-dihydroxy-propoxy)-phenyl]-amide]
5.66 | CN(CCO)c1ccc(Cl)cc1NC(=O)c1cnn2cccnc12 [Example 129, Pyrazolo[1,5-alpha]pyrimidine-3-carboxylic acid {5-chloro-2-[(2-hydroxy-ethyl)-methyl-amino]-phenyl}-amide]
6.19 | O=C(Nc1cc(Cl)ccc1N1CCC(CO)C1)c1cnn2cccnc12 (stereo not drawn) [Example 106, Pyrazolo[1,5-alpha]pyrimidine-3-carboxylic acid [5-chloro-2-(3-hydroxymethyl-pyrrolidin-1-yl)-phenyl]-amide]
7.48 | CC(O)CCOc1cc2ncccc2cc1NC(=O)c1csc2cncnc12 (stereo not drawn) [Example 28]
5.65 | COc1cc(C(N)=O)ccc1NC(=O)c1cnn2cccnc12 [Example 134, Pyrazolo[1,5-alpha]pyrimidine-3-carboxylic acid (4-carbamoyl-2-methoxy-phenyl)-amide]
5.11 | COc1ccc(NC(C)=O)cc1NC(=O)c1cnn2cccnc12 [Example 173, Pyrazolo[1,5-alpha]pyrimidine-3-carboxylic acid (5-acetylamino-2-methoxy-phenyl)-amide]
5.77 | COCCOc1ccc(Cl)cc1NC(=O)c1cnn2cccnc12 [Example 124, Pyrazolo[1,5-alpha]pyrimidine-3-carboxylic acid [5-chloro-2-(2-methoxy-ethoxy)-phenyl]-amide]
6.75 | O=C(Nc1cc2ccccc2cc1OC1CCC(O)C1)c1cnn2cccnc12 (stereo not drawn) [Example 65, Pyrazolo[1,5-alpha]pyrimidine-3-carboxylic acid [3-(3-hydroxy-cyclopentyloxy)-naphthalen-2-yl]-amide]

pIC50 | SMILES
5.52 | O=C(Nc1cc(Cl)ccc1OC1CCC(O)CC1)c1cnn2cc(CCO)cnc12 (stereo not drawn) [Example 147, 6-(2-Hydroxy-ethyl)-pyrazolo[1,5-alpha]pyrimidine-3-carboxylic acid [5-chloro-2-(4-hydroxy-cyclohexyloxy)-phenyl]-amide]
5.51 | CC(N)C1CCN(c2ccc(Cl)cc2NC(=O)c2cnn3cccnc23)C1 (stereo not drawn) [Example 148, Pyrazolo[1,5-alpha]pyrimidine-3-carboxylic acid {2-[3-(1-amino-ethyl)-pyrrolidin-1-yl]-5-chloro-phenyl}-amide hydrochloride]
6.66 | O=C(Nc1cc(Cl)ccc1-c1ccc(CO)cc1)c1cnn2cccnc12 [Example 68, Pyrazolo[1,5-alpha]pyrimidine-3-carboxylic acid (4-chloro-4′-hydroxymethyl-biphenyl-2-yl)-amide]
7.00 | COc1cc2ncccc2cc1NC(=O)c1csc2cnc(NCCCN)nc12 [Example 50, 2-(3-Amino-propylamino)-thieno[3,2-d]pyrimidine-7-carboxylic acid (7-methoxy-quinolin-6-yl)-amide]
7.37 | COc1cc2ncccc2cc1NC(=O)c1cnn2cccnc12 [Example 33, Pyrazolo[1,{tildeover (5)}alpha] pyrimidine-3-carboxylic acid (7-methoxy-quinolin-6-yl)-amide]
5.12 | COc1cc(C(=O)N(C)C)ccc1NC(=O)c1cnn2cccnc12 [Example 172, Pyrazolo[1,5-alpha]pyrimidine-3-carboxylic acid (4-dimethylcarbamoyl-2-methoxy-phenyl)-amide]
6.29 | O=C(Nc1cc(Cl)ccc1OCc1cnco1)c1cnn2cccnc12 [Example 98, Pyrazolo[1,5-alpha]pyrimidine-3-carboxylic acid [5-chloro-2-(oxazol-5-ylmethoxy)-phenyl]-amide]
7.14 | O=C(Nc1cc(Cl)ccc1N1CCC(CO)CC1)c1cnn2cccnc12 [Example 42, Pyrazolo[1,5-alpha]pyrimidine-3-carboxylic acid [5-chloro-2-(4-hydroxymethyl-piperidin-1-yl)-phenyl]-amide]
6.97 | NC(=O)c1cnc2c(C(=O)Nc3cc(Cl)ccc3OC3CCC(O)CC3)cnn2c1 (stereo not drawn) [Example 52, Pyrazolo[1,5-alpha]pyrimidine-3,6-dicarboxylic acid 6-amide-3-{[5-chloro-2-(4-hydroxy-cyclohexyloxy)-phenyl]-amide}]
5.69 | COc1ccc(Cl)cc1NC(=O)c1csc2cnc(NCCCO)nc12 [Example 126, 2-(3-Hydroxy-propylamino)-thieno[3,2-d]pyrimidine-7-carboxylic acid (5-chloro-2-methoxy-phenyl)-amide]
5.33 | O=C(Nc1cc(Cl)ccc1Oc1ccccc1)c1cnn2cccnc12 [Example 161, Pyrazolo[1,5-alpha]pyrimidine-3-carboxylic acid (5-chloro-2-phenoxy-phenyl)-amide]
5.10 | COc1cc(C(=O)Nc2ccccc2)c(Cl)cc1NC(=O)c1cnn2cccnc12 [Example 174, Pyrazolo[1,5-alpha]pyrimidine-3-carboxylic acid (5-chloro-2-methoxy-4-phenylcarbamoyl-phenyl)-amide]
6.27 | O=C(Nc1cc(Cl)ccc1-c1ccccc1)c1cnn2cccnc12 [Example 100, Pyrazolo[1,5-alpha]pyrimidine-3-carboxylic acid (4-chloro-biphenyl-2-yl)-amide]
5.08 | COc1ccc(CCCO)cc1NC(=O)c1cnn2cccnc12 [Example 176, Pyrazolo[1,5-alpha]pyrimidine-3-carboxylic acid [5-(3-hydroxy-propyl)-2-methoxy-phenyl]-amide]
6.50 | O=C(Nc1cc(Cl)ccc1N1CCCCC1)c1cnn2cccnc12 [Example 79, Pyrazolo[1,5-alpha]pyrimidine-3-carboxylic acid (5-chloro-2-piperidin-1-yl-phenyl)-amide]
6.59 | COc1cc2cc(C)[nH]c2cc1NC(=O)c1cnn2cccnc12 [Example 72, Pyrazolo[1,5-alpha]pyrimidine-3-carboxylic acid (5-methoxy-2-methyl-1H-indol-6-yl)-amide]
5.42 | CCc1ccc(Cl)cc1NC(=O)c1cnn2cccnc12 [Example 154, Pyrazolo[1,5-alpha]pyrimidine-3-carboxylic acid (5-chloro-2-ethyl-phenyl)-amide]
5.38 | COc1ccc(NC(=O)c2cnn3cccnc23)c(OC)c1 [Example 158, Pyrazolo[1,5-alpha]pyrimidine-3-carboxylic acid (2,4-dimethoxy-phenyl)-amide]

SMILES | pIC50
COc1ccc(Cl)cc1NC(=O)c1csc2cnc(N(C)CCN)nc12 [Example 86, 2-[(2-Amino-ethyl)-methyl-amino]-thieno[3,2-d]pyrimidine-7-carboxylic acid (5-chloro-2-methoxy-phenyl)-amide] | 6.36
O=C(Nc1cc2cccnc2cc1OC1CCNCC1)c1csc2cncnc12 [Example 56, Thieno[3,2-d]pyrimidine-7-carboxylic acid [7-(piperidin-4-yloxy)-quinolin-6-yl]-amide hydrochloride] | 6.90

From patent US9255110B2 (Hoffmann-La Roche Inc., priority 2010, dated 2016)
